According to ChEMBL document CHEMBL1147792, “Functional organisation and gain of activity: the case of the antibacterial tetra-para-guanidinoethyl-calix[4]arene” (Bioorg Med Chem Lett, 2006):
Values joined by “and” are separate entries in the source; they are usually repeats but may differ in a detail not shown here. Equal entries are not always repeated. Active and inactive are the calls of the source. No cut-off for these calls is given here.

How the values were obtained:
[1] = tested on: Pseudomonas aeruginosa; test: Antibacterial activity against Pseudomonas aeruginosa ATCC 27853 at 256 ug by disk diffusion method; format: functional, organism-based
[2] = tested on: Pseudomonas aeruginosa; test: Antibacterial activity against Pseudomonas aeruginosa ATCC 27853 at 65 ug by disk diffusion method; format: functional, organism-based
[3] = tested on: Escherichia coli; test: Antibacterial activity against Escherichia coli ATCC 25922 at 128 ug by disk diffusion method; format: functional, organism-based
[4] = tested on: Staphylococcus aureus; test: Antibacterial activity against Staphylococcus aureus ATCC 25923; format: functional
[5] = tested on: Escherichia coli; test: Antibacterial activity against Escherichia coli ATCC 25922; format: functional
[6] = tested on: Staphylococcus aureus; test: Antibacterial activity against Staphylococcus aureus ATCC 25923 at 256 ug by disk diffusion method; format: functional
[7] = tested on: Enterococcus faecalis; test: Antibacterial activity against Enterococcus faecalis ATCC 29212 at 32 ug by disk diffusion method; format: functional, organism-based
[8] = tested on: Pseudomonas aeruginosa; test: Antibacterial activity against Pseudomonas aeruginosa ATCC 27853 at 32 ug by disk diffusion method; format: functional, organism-based
[9] = tested on: MRC5; test: Ratio of IC50 for viability of MRC5 cells after 48 hrs to MIC for Escherichia coli ATCC 25922; format: functional
[10] = tested on: Pseudomonas aeruginosa; test: Antibacterial activity against Pseudomonas aeruginosa ATCC 27853 at 128 ug by disk diffusion method; format: functional, organism-based
[11] = tested on: Enterococcus faecalis; test: Antibacterial activity against Enterococcus faecalis ATCC 29212 at 256 ug by disk diffusion method; format: functional, organism-based
[12] = tested on: Staphylococcus aureus; test: Antibacterial activity against Staphylococcus aureus ATCC 25923 at 32 ug by disk diffusion method; format: functional, organism-based
[13] = tested on: Escherichia coli; test: Antibacterial activity against Escherichia coli ATCC 25922 at 32 ug by disk diffusion method; format: functional, organism-based
[14] = tested on: Staphylococcus aureus; test: Antibacterial activity against Staphylococcus aureus ATCC 25923 at 128 ug by disk diffusion method; format: functional, organism-based
[15] = tested on: MRC5; test: Ratio of IC50 for viability of MRC5 cells after 48 to MIC for Staphylococcus aureus ATCC 25923; format: functional
[16] = tested on: Staphylococcus aureus; test: Antibacterial activity against Staphylococcus aureus ATCC 25923 at 65 ug by disk diffusion method; format: functional, organism-based
[17] = tested on: Escherichia coli; test: Antibacterial activity against Escherichia coli ATCC 25922 at 65 ug by disk diffusion method; format: functional, organism-based
[18] = tested on: Enterococcus faecalis; test: Antibacterial activity against Enterococcus faecalis ATCC 29212; format: functional
[19] = tested on: MRC5; test: Viability of human MRC5 cells after 48 hrs; format: functional, cell-based; details: MRC5, 48 h
[20] = tested on: Enterococcus faecalis; test: Antibacterial activity against Enterococcus faecalis ATCC 29212 at 65 ug by disk diffusion method; format: functional, organism-based
[21] = tested on: Pseudomonas aeruginosa; test: Antibacterial activity against Pseudomonas aeruginosa ATCC 27853; format: functional
[22] = tested on: MRC5; test: Ratio of IC50 for viability of MRC5 cells after 48 to MIC for Pseudomonas aeruginosa ATCC 27853; format: functional
[23] = tested on: Escherichia coli; test: Antibacterial activity against Escherichia coli ATCC 25922 at 256 ug by disk diffusion method; format: functional
[24] = tested on: Enterococcus faecalis; test: Antibacterial activity against Enterococcus faecalis ATCC 29212 at 128 ug by disk diffusion method; format: functional, organism-based
[25] = tested on: MRC5; test: Ratio of IC50 for viability of MRC5 cells after 48 to MIC for Enterococcus faecalis ATCC 29212; format: functional
[26] = tested on: Staphylococcus aureus; test: Antibacterial activity against Staphylococcus aureus ATCC 25923 at 270 ug by disk diffusion method; format: functional
[27] = tested on: Pseudomonas aeruginosa; test: Antibacterial activity against Pseudomonas aeruginosa ATCC 27853 at 67 ug by disk diffusion method; format: functional, organism-based
[28] = tested on: Staphylococcus aureus; test: Antibacterial activity against Staphylococcus aureus ATCC 25923 at 67 ug by disk diffusion method; format: functional
[29] = tested on: Enterococcus faecalis; test: Antibacterial activity against Enterococcus faecalis ATCC 29212 at 135 ug by disk diffusion method; format: functional
[30] = tested on: Escherichia coli; test: Antibacterial activity against Escherichia coli ATCC 25922 at 270 ug by disk diffusion method; format: functional
[31] = tested on: Pseudomonas aeruginosa; test: Antibacterial activity against Pseudomonas aeruginosa ATCC 27853 at 34 ug by disk diffusion method; format: functional, organism-based
[32] = tested on: Enterococcus faecalis; test: Antibacterial activity against Enterococcus faecalis ATCC 29212 at 34 ug by disk diffusion method; format: functional, organism-based
[33] = tested on: Staphylococcus aureus; test: Antibacterial activity against Staphylococcus aureus ATCC 25923 at 34 ug by disk diffusion method; format: functional
[34] = tested on: Enterococcus faecalis; test: Antibacterial activity against Enterococcus faecalis ATCC 29212 at 270 ug by disk diffusion method; format: functional
[35] = tested on: Escherichia coli; test: Antibacterial activity against Escherichia coli ATCC 25922 against at 135 ug by disk diffusion method; format: functional
[36] = tested on: Enterococcus faecalis; test: Antibacterial activity against Enterococcus faecalis ATCC 29212 at 67 ug by disk diffusion method; format: functional
[37] = tested on: Pseudomonas aeruginosa; test: Antibacterial activity against Pseudomonas aeruginosa ATCC 27853 at 135 ug by disk diffusion method; format: functional, organism-based
[38] = tested on: Staphylococcus aureus; test: Antibacterial activity against Staphylococcus aureus ATCC 25923 at 135 ug by disk diffusion method; format: functional
[39] = tested on: Pseudomonas aeruginosa; test: Antibacterial activity against Pseudomonas aeruginosa ATCC 27853 at 270 ug by disk diffusion method; format: functional
[40] = tested on: Escherichia coli; test: Antibacterial activity against Escherichia coli ATCC 25922 at 34 ug by disk diffusion method; format: functional, organism-based
[41] = tested on: Escherichia coli; test: Antibacterial activity against Escherichia coli ATCC 25922 at 67 ug by disk diffusion method; format: functional

Structure (SMILES): N=C(N)NCCc1ccc(O)cc1.O=C(O)C(F)(F)F
- inhibition zone (IZ) [1]: inactive
- inhibition zone (IZ) [2]: inactive
- inhibition zone (IZ) [3]: inactive
- MIC [4]: 512 µg/mL and 1750 µM
- MIC [5]: 512 µg/mL and 1750 µM
- inhibition zone (IZ) [6]: 7.8 mm
- inhibition zone (IZ) [7]: inactive
- inhibition zone (IZ) [8]: inactive
- Selectivity index [9]: 0.48
- inhibition zone (IZ) [10]: inactive
- inhibition zone (IZ) [11]: inactive
- inhibition zone (IZ) [12]: inactive
- inhibition zone (IZ) [13]: inactive
- inhibition zone (IZ) [14]: inactive
- Selectivity index [15]: 0.48
- inhibition zone (IZ) [16]: inactive
- inhibition zone (IZ) [17]: inactive
- MIC [18]: ≥ 512 µg/mL and 1750 µM
- IC50 [19]: 850 µM
- inhibition zone (IZ) [20]: inactive
- MIC [21]: 512 µg/mL and 1750 µM
- Selectivity index [22]: 0.48
- inhibition zone (IZ) [23]: 7.6 mm
- inhibition zone (IZ) [24]: inactive
- Selectivity index [25]: <=0.48

Structure (SMILES): N=C(N)NCCc1cc2c(O)c(c1)Cc1cc(CCNC(=N)N)cc(c1O)Cc1cc(CCNC(=N)N)cc(c1O)Cc1cc(CCNC(=N)N)cc(c1O)C2.O=C(O)C(F)(F)F.O=C(O)C(F)(F)F.O=C(O)C(F)(F)F.O=C(O)C(F)(F)F
- inhibition zone (IZ) [26]: 11 mm
- MIC [4]: 16 µg/mL and 13 µM
- inhibition zone (IZ) [27]: inactive
- inhibition zone (IZ) [28]: 8 mm
- MIC [5]: 16 µg/mL and 13 µM
- inhibition zone (IZ) [29]: 8.3 mm
- inhibition zone (IZ) [30]: 11.2 mm
- inhibition zone (IZ) [31]: inactive
- Selectivity index [9]: 43
- inhibition zone (IZ) [32]: inactive
- inhibition zone (IZ) [33]: 6.3 mm
- inhibition zone (IZ) [34]: 10 mm
- inhibition zone (IZ) [35]: 9.3 mm
- inhibition zone (IZ) [36]: 6.6 mm
- Selectivity index [15]: 43
- inhibition zone (IZ) [37]: inactive
- MIC [18]: 64 µg/mL and 51 µM
- IC50 [19]: 560 µM
- MIC [21]: 16 µg/mL and 13 µM
- Selectivity index [22]: 43
- inhibition zone (IZ) [38]: 9 mm
- inhibition zone (IZ) [39]: 7.8 mm
- inhibition zone (IZ) [40]: inactive
- Selectivity index [25]: 11
- inhibition zone (IZ) [41]: 7.3 mm
